# Measurements taken from ChEMBL document CHEMBL1201862, “PubChem BioAssay data set” (2004).
#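 Method: 48-hour compound exposure of cells in 96-well plates, five concentrations, linear interpolation of endpoints. GI50 = concentration required for 50% inhibition of growth.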 The source made the active and inactive calls. No stated cut-off is given here; in the data, active = GI50 up to about 1.1 µM and inactive = higher.
# Tests used:
# Experiment in all cases: NCI tumour cell line growth inhibition, 48 h
# SK-OV-3 = system: SK-OV-3
# NCI-H226 = system: NCI-H226
# A549 = system: A549
# UACC-62 = system: UACC-62
# SNB-75 = system: SNB-75
# HCT-15 = system: HCT-15
# HCT-116 = system: HCT-116
# IGROV-1 = system: IGROV-1
# HT-29 = system: HT-29
# K562 = system: K562
# SR = system: SR
# ACHN = system: ACHN
# M14 = system: M14
# KM-20L2 = system: KM-20L2
# OVCAR-4 = system: OVCAR-4
# SK-MEL-5 = system: SK-MEL-5
# U-251 = system: U-251
# NCI-H460 = system: NCI-H460
# OVCAR-5 = system: OVCAR-5
# RXF 631 = system: RXF 631
# M19-MEL = system: M19-MEL
# RXF 393 = system: RXF 393
# HOP-62 = system: HOP-62
# 786-0 = system: 786-0
# XF498 = system: XF498
# HCC 2998 = system: HCC 2998
# NCI-H522 = system: NCI-H522
# OVCAR-8 = system: OVCAR-8
# COLO 205 = system: COLO 205
# SK-MEL-28 = system: SK-MEL-28
# UO-31 = system: UO-31
# SF-539 = system: SF-539
# Malme-3M = system: Malme-3M
# OVCAR-3 = system: OVCAR-3
# CCRF-CEM = system: CCRF-CEM
# HL-60 = system: HL-60
# CAKI-1 = system: CAKI-1
# UACC-257 = system: UACC-257
# NCI-H23 = system: NCI-H23
# KM12 = system: KM12
# SF-268 = system: SF-268
# SF-295 = system: SF-295
# LXFL 529 = system: LXFL 529
# SNB-19 = system: SNB-19
# SN12C = system: SN12C
# SNB-78 = system: SNB-78
# LOX IMVI = system: LOX IMVI
# MOLT-4 = system: MOLT-4
# TK-10 = system: TK-10
# RPMI-8226 = system: RPMI-8226
# SW-620 = system: SW-620
# SK-MEL-2 = system: SK-MEL-2
# EKVX = system: EKVX
# HOP-92 = system: HOP-92
# DMS-273 = system: DMS-273
# A498 = system: A498
# HOP-18 = system: HOP-18
# DMS-114 = system: DMS-114
compound,measurement,setting,value
CCN(CC)Cc1cc(Nc2ccnc3ccc4nn(C)nc4c23)ccc1O,GI50,SK-OV-3,18.5 µM (inactive)
same,GI50,NCI-H226,22.5 µM (inactive)
same,GI50,A549,21.1 µM (inactive)
same,GI50,UACC-62,13.7 µM (inactive)
same,GI50,SNB-75,12.3 µM (inactive)
same,GI50,HCT-15,16.7 µM
same,GI50,HCT-116,4.79 µM (inactive)
same,GI50,IGROV-1,25.2 µM (inactive)
same,GI50,HT-29,4.7 µM (inactive)
same,GI50,K562,> 100 µM (inactive)
same,GI50,SR,74.6 µM (inactive)
same,GI50,ACHN,9.25 µM (inactive)
same,GI50,M14,14.3 µM (inactive)
same,GI50,KM-20L2,6.89 µM (inactive)
same,GI50,OVCAR-4,10.4 µM (inactive)
same,GI50,SK-MEL-5,16.3 µM (inactive)
same,GI50,U-251,15.3 µM (inactive)
same,GI50,NCI-H460,5.64 µM (inactive)
same,GI50,OVCAR-5,12.6 µM (inactive)
same,GI50,RXF 631,7.78 µM (inactive)
same,GI50,M19-MEL,11.9 µM (inactive)
same,GI50,RXF 393,9.25 µM (inactive)
same,GI50,HOP-62,16.9 µM (inactive)
same,GI50,786-0,11.8 µM (inactive)
same,GI50,XF498,11.8 µM (inactive)
same,GI50,HCC 2998,13.3 µM (inactive)
same,GI50,NCI-H522,9.29 µM (inactive)
same,GI50,OVCAR-8,11.4 µM (inactive)
same,GI50,COLO 205,5.02 µM (inactive)
same,GI50,SK-MEL-28,14 µM (inactive)
same,GI50,UO-31,11.9 µM (inactive)
same,GI50,SF-539,13.6 µM (inactive)
same,GI50,Malme-3M,16.9 µM (inactive)
same,GI50,OVCAR-3,12.3 µM (inactive)
same,GI50,CCRF-CEM,> 100 µM (inactive)
same,GI50,HL-60,84.9 µM (inactive)
same,GI50,CAKI-1,28.8 µM (inactive)
same,GI50,UACC-257,13.9 µM (inactive)
same,GI50,NCI-H23,15.3 µM (inactive)
same,GI50,KM12,10.5 µM (inactive)
same,GI50,SF-268,13.6 µM (inactive)
same,GI50,SF-295,13.6 µM (inactive)
same,GI50,LXFL 529,12.6 µM (inactive)
same,GI50,SNB-19,28 µM (inactive)
same,GI50,SN12C,11.3 µM (inactive)
same,GI50,SNB-78,15.9 µM (inactive)
same,GI50,LOX IMVI,7.73 µM (inactive)
same,GI50,MOLT-4,6.58 µM (inactive)
same,GI50,TK-10,22.4 µM (inactive)
same,GI50,RPMI-8226,7.85 µM (inactive)
same,GI50,SW-620,5.55 µM (inactive)
Cc1cc2c(cc1C)[n+]([O-])c(C(=O)CC(=O)C(=O)Nc1ccccc1C)c(C)[n+]2[O-],GI50,SK-OV-3,> 100 µM (inactive)
same,GI50,NCI-H226,> 100 µM (inactive)
same,GI50,A549,56.2 µM (inactive)
same,GI50,UACC-62,> 100 µM (inactive)
same,GI50,SNB-75,> 100 µM (inactive)
same,GI50,HCT-15,> 100 µM
same,GI50,HCT-116,> 100 µM (inactive)
same,GI50,IGROV-1,> 100 µM (inactive)
same,GI50,HT-29,> 100 µM (inactive)
same,GI50,SK-MEL-2,> 100 µM (inactive)
same,GI50,EKVX,33.8 µM (inactive)
same,GI50,K562,> 100 µM (inactive)
same,GI50,HOP-92,> 100 µM (inactive)
same,GI50,SR,38 µM (inactive)
same,GI50,ACHN,> 100 µM (inactive)
same,GI50,M14,> 100 µM (inactive)
same,GI50,KM-20L2,> 100 µM (inactive)
same,GI50,OVCAR-4,> 100 µM (inactive)
same,GI50,SK-MEL-5,> 100 µM (inactive)
same,GI50,U-251,> 100 µM (inactive)
same,GI50,NCI-H460,80.5 µM (inactive)
same,GI50,OVCAR-5,> 100 µM (inactive)
same,GI50,RXF 631,32 µM (inactive)
same,GI50,M19-MEL,> 100 µM (inactive)
same,GI50,RXF 393,> 100 µM (inactive)
same,GI50,DMS-273,> 100 µM (inactive)
same,GI50,HOP-62,> 100 µM (inactive)
same,GI50,786-0,> 100 µM (inactive)
same,GI50,HCC 2998,> 100 µM (inactive)
same,GI50,NCI-H522,54 µM (inactive)
same,GI50,OVCAR-8,> 100 µM (inactive)
same,GI50,COLO 205,46.5 µM (inactive)
same,GI50,SK-MEL-28,> 100 µM (inactive)
same,GI50,UO-31,96.6 µM (inactive)
same,GI50,SF-539,> 100 µM (inactive)
same,GI50,Malme-3M,> 100 µM (inactive)
same,GI50,OVCAR-3,> 100 µM (inactive)
same,GI50,CCRF-CEM,40.7 µM (inactive)
same,GI50,HL-60,62.8 µM (inactive)
same,GI50,A498,> 100 µM (inactive)
same,GI50,CAKI-1,> 100 µM (inactive)
same,GI50,UACC-257,> 100 µM (inactive)
same,GI50,HOP-18,30.5 µM (inactive)
same,GI50,NCI-H23,> 100 µM (inactive)
same,GI50,KM12,> 100 µM (inactive)
same,GI50,SF-268,> 100 µM (inactive)
same,GI50,SF-295,> 100 µM (inactive)
same,GI50,LXFL 529,84.7 µM (inactive)
same,GI50,SNB-19,> 100 µM (inactive)
same,GI50,SN12C,> 100 µM (inactive)
same,GI50,SNB-78,> 100 µM (inactive)
same,GI50,LOX IMVI,> 100 µM (inactive)
same,GI50,MOLT-4,> 100 µM (inactive)
same,GI50,TK-10,> 100 µM (inactive)
same,GI50,RPMI-8226,> 100 µM (inactive)
same,GI50,SW-620,> 100 µM (inactive)
C=CC1C2=C(C(=O)NCC2)C2OC(O)C3=C(CCNC3=O)C2C1C (stereo not drawn),GI50,SK-OV-3,> 100 µM (inactive)
same,GI50,A549,> 100 µM (inactive)
same,GI50,UACC-62,> 100 µM (inactive)
same,GI50,HCT-116,> 100 µM (inactive)
same,GI50,IGROV-1,> 100 µM (inactive)
same,GI50,EKVX,> 100 µM (inactive)
same,GI50,HOP-92,> 100 µM (inactive)
same,GI50,SR,> 100 µM (inactive)
same,GI50,ACHN,> 100 µM (inactive)
same,GI50,U-251,> 100 µM (inactive)
same,GI50,OVCAR-5,> 100 µM (inactive)
same,GI50,RXF 631,> 100 µM (inactive)
same,GI50,RXF 393,> 100 µM (inactive)
same,GI50,NCI-H522,> 100 µM (inactive)
same,GI50,SK-MEL-28,> 100 µM (inactive)
same,GI50,UO-31,> 100 µM (inactive)
same,GI50,CCRF-CEM,> 100 µM (inactive)
same,GI50,DMS-114,> 100 µM (inactive)
same,GI50,HL-60,> 100 µM (inactive)
same,GI50,NCI-H23,> 100 µM (inactive)
same,GI50,KM12,> 100 µM (inactive)
same,GI50,SF-268,> 100 µM (inactive)
same,GI50,SNB-19,> 100 µM (inactive)
same,GI50,SNB-78,> 100 µM (inactive)
same,GI50,MOLT-4,> 100 µM (inactive)
same,GI50,TK-10,> 100 µM (inactive)
